Measured values published in patent publication US9637519B2, “Peptide for inducing mast cell-specific apoptosis and use thereof” (CAREGEN CO., LTD., priority 2013, dated 2017).
Where two headings read alike, the source gives them in different places. Ends that are not written are not given here.

B1: natural semaphorin 3A protein: standard form growth factor (Semaphorin 3A) purchased from NIBSC (UK); human semaphorin 3A, SEQ ID NO: 2 (protein, listed as Homo sapiens)
chain: MGWLTRIVCLFWGVLLTARANYQNGKNNVPRLKLSYKEMLESNNVITFNGLANSSSYHTFLLDEERSRLYVGAKDHIFSFDLVNIKDFQKIVWPVSYTRRDECKWAGKDILKECANFIKVLKAYNQTHLYACGTGAFHPICTYIEIGHHPEDNIFKLENSHFENGRGKSPYDPKLLTASLLIDGELYSGTAADFMGRDFAIFRTLGHHHPIRTEQHDSRWLNDPKFISAHLISESDNPEDDKVYFFFRENAIDGEHSGKATHARIGQICKNDFGGHRSLVNKWTTFLKARLICSVPGPNGIDTHFDELQDVFLMNFKDPKNPVVYGVFTTSSNIFKGSAVCMYSMSDVRRVFLGPYAHRDGPNYQWVPYQGRVPYPRPGTCPSKTFGGFDSTKDLPDDVITFARSHPAMYNPVFPMNNRPIVIKTDVNYQFTQIVVDRVDAEDGQYDVMFIGTDVGTVLKVVSIPKETWYDLEEVLLEEMTVFREPTAISAMELSTKQQQLYIGSTAGVAQLPLHRCDIYGKACAECCLARDPYCAWDGSACSRYFPTAKRRTRRQDIRNGDPLTHCSDLHHDNHHGHSPEERIIYGVENSSTFLECSPKSQRALVYWQFQRRNEERKEEIRVDDHIIRTDQGLLLRSLQQKDSGNYLCHAVEHGFIQTLLKVTLEVIDTEHLEELLHKDDDGDGSKTKEMSNSMTPSQKVWYRDFMQLINHPNLNTMDEFCEQVWKRDRKQRRQRPGHTPGNSNKWKHLQENKKGRNRRTHEFERAPRSV

Key:
[1] = system: RBL-2H3 cells; assay: Histamine secretion from IgE/HSA-stimulated mast cells (histamine ELISA); assay type: cell-based, rat; conditions: IgE 1 μg/ml sensitized, HSA 1 μg/ml stimulated
Protocol: In the culture of RBL-2H3 cells sensitized by IgE treatment (1 μg/ml) for 16 h, the existing culture medium was removed and exchanged with a tyrode buffer. […] In addition, in order to measure the activity of beta-hexosaminidase, the degree of color development after a reaction with a substrate, p-N-acetyl-glucosamine (NAG; SIGMA, USA) was determined by measuring the absorbance at 405 nm using a spectrophotometer (see FIG. 3b).

[2] = system: Bcl2; conditions: 1 and 10 μg/ml, 27 h
[3] = target: T1, FcεRI receptor (Rattus norvegicus, UniProt P12371+P13386+P20411); assay: Immunoprecipitation with IgE antibody and western blotting of FcεRI gamma sub-chain (receptor complex formation); assay type: cell-based; conditions: IgE-sensitized cells; peptide 10 μg/ml; HSA stimulation 10 min
T1 construct: FcεRI receptor, which is present on surfaces of mast cells; endogenous in cells; host or cells: RBL-2H3 rat mast cell line
T1 sequence (P12371 24-245): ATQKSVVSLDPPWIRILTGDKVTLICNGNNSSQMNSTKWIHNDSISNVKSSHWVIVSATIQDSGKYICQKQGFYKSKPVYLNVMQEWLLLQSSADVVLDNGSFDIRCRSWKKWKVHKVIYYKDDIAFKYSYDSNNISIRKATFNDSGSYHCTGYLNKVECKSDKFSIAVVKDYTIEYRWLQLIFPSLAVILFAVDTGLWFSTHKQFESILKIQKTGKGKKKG
T1 sequence (P13386 1-243): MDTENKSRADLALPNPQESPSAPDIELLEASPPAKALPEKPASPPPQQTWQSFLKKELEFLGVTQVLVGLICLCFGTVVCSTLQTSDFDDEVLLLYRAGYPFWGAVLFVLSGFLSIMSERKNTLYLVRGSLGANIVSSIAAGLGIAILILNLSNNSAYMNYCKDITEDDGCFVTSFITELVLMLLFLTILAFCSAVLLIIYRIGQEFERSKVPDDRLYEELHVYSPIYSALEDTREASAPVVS
T1 sequence (P20411 19-86): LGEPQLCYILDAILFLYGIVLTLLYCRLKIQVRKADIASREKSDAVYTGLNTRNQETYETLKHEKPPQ
Protocol: After the first separation using immunoprecipitation, western blotting was conducted using FcεRI gamma sub-chain antibody to confirm the protein amount of the gamma sub-chains binding to IgE (see FIG. 4c).

[4] = system: Lyn; conditions: IgE-sensitized cells; peptide treatment 20 min; HSA 1 μg/ml
[5] = system: RBL-2H3 rat mast cell lines; conditions: 10 μg/ml treatment group, 27 h
Protocol: First, RBL-2H3 rat mast cell lines (Korean Cell Line Bank, Korea) were cultured in Dulbecco's modified Eagle's medium (DMEM, Gibco, U.S.A.) supplemented with 10% fetal bovine serum (FBS, Sigma) using a flask for tissue culture (SPL, Korea). The cultured cell lines were detached from the bottom of the culture container using a 1% trypsin solution, and then only cell deposits were collected by centrifugation. The cell deposits were again suspended in DMEM culture liquid, placed in each well of a 6-well plate for tissue culture (SPL, Korea) at 1×10^5 cells per well, and then cultured for 24 h under conditions of 37° C. and 5% CO2. After 24 h, the medium was exchanged with the same culture liquid. […] After the completion of the culture, the culture supernatant fluid was removed, the cultured cell lines were detached from the bottom of the culture container using a 1% trypsin solution, and then only cell precipitates were collected by centrifugation. The cells were stained using an Annexin V-PI staining kit (BD pharmigen), and then FL1 and FL2 intensities were measured using flow cytometry, FACS. Annexin V-positive apoptotic cells were counted (see FIG. 2a).

[6] = system: HaCaT cells; conditions: HaCaT human keratinocytes; 1 and 10 μg/ml; 27 h; MTT
Protocol: (§1) Meanwhile, in order to investigate whether or not the apoptosis effect is a mast cell-specific reaction, the cytotoxicity test was conducted using HaCaT cells as keratinocytes and NIH3T3 cells as fibroblasts. The cells were placed in a 96-well plate for tissue culture at 5×10^3 cells per well, and then cultured for 24 h under conditions of 37° C. and 5% CO2. After 24 h, the medium was exchanged with the same culture liquid. A blank sample for determining a reference and the synthetic peptide were dissolved in 10% distilled water in a sterile state, followed by culturing at concentrations of 1 μg/ml and 10 μg/ml for 27 h under the same conditions as above. After the completion of the culture, the culture liquid was treated with MTT reagent (5 mg/ml; SIGMA, USA) with 1/10 volume and further cultured for 4 h, and the generated formazan was dissolved in DMSO and the absorbance was measured at 540 nm using a spectrophotometer (Molecular devices, USA) (see FIG. 2c).

[7] = system: NIH3T3 cells; conditions: NIH3T3 fibroblasts; 1 and 10 μg/ml; 27 h; MTT
Protocol: as §1

[8] = system: ERK1/2; conditions: IgE-sensitized cells; peptide 10 μg/ml 20 min; HSA 1 μg/ml 5 or 30 min
Protocol: (§2) The cells were placed in a 60 mm-sized plate for culture (SPL, Korea) at 1.5×10^6 cells per well, and then cultured for 24 h under conditions of 37° C. and 5% CO2. After that, the cells were treated with IgE (1 μg/ml) for 24 h for cell sensitization, and then a blank sample for determining a reference and the synthetic peptide were dissolved in 10% distilled water in a sterile state, followed by treatment with a concentration of 10 μg/ml for 20 min, and then the cells were stimulated by treatment with 1 μg/ml allergen HSA for 5 min or 30 min.

[9] = system: p38; conditions: IgE-sensitized cells; peptide 10 μg/ml 20 min; HSA 1 μg/ml 5 or 30 min
Protocol: as §2

[10] = Thermal stability at 37° C. in phosphate buffered saline, HPLC quantification; assay type: physicochemical; conditions: 0.1 mg/ml in PBS, days 0-70 (FIG. 5)
Protocol: 1 ml of the prepared solution was placed in each glass vial, and allowed to stand at 37° C. The solution standing at 37° C. was sampled on days 0, 5, 10, 20, 30, 50, and 70. Centrifugation for each day was conducted to remove modified peptides or proteins, and the supernatant was taken. HPLC was used for quantification (see FIG. 5).

[11] = activated mast cells (IgE and HSA treatment)

| Molecule | secretion amount of histamine ([1]; positive control 40 μM) | expression level of Bcl2 [2, 11] | expression level of Bcl2 ([2]; inactivated mast cells) | complex formation of FcεRI receptor (gamma sub-chains binding to IgE) [3] | phosphorylation of Lyn [4] | Annexin V-positive cell count (apoptosis) [5, 11] | Annexin V-positive cell count (apoptosis) ([5]; inactivated mast cells) | secretion amount of histamine ([1]; peptide 1 and 10 μg/ml) | cytotoxicity [6] | cytotoxicity [7] | phosphorylation of ERK1/2 [8] | phosphorylation of p38 [9] | thermal stability [10] |
| --- | --- | --- | --- | --- | --- | --- | --- | --- | --- | --- | --- | --- | --- |
| O=c1c(O)c(-c2ccc(O)c(O)c2)oc2cc(O)cc(O)c12 [quercetin, reference compound] | reduces the secretion amount of histamine |  |  |  |  |  |  |  |  |  |  |  |  |
| WVPYQARVPYPR [peptide of the present invention] |  | reduce the expression level of Bcl2 | reduce the expression level of Bcl2 | significantly inhibit the complex formation | significantly inhibited in a concentration-dependent manner | increased the Annexin V-positive cell count | increased the Annexin V-positive cell count | activity to reduce the secretion amount of histamine in a concentration-dependent manner | did not exhibit cytotoxicity | did not exhibit cytotoxicity | efficacy of inhibiting the phosphorylation | efficacy of inhibiting the phosphorylation | very excellent thermal stability |
| B1 |  |  |  |  |  |  |  |  |  |  |  |  | low stability at the time of storage for a long period of time |
